Test results from ChEMBL document CHEMBL1145262, “Aryl sulfones: a new class of gamma-secretase inhibitors” (Bioorg Med Chem Lett, 2005).

Target: Gamma-secretase
Assay: In vitro inhibition of gamma-secretase as amyloid peptide production in SH-SY5Y cells
Type: functional, cell-based, Homo sapiens

IC50 [nM]	Structure (SMILES)
461	O=S(=O)(c1ccc(Cl)cc1)C1(c2ccccc2)CCCCC1
55	O=S(=O)(c1ccc(Cl)cc1)C1(c2ccccc2F)CCCCC1
170	CC(C)N(c1cc(F)ccc1F)S(=O)(=O)c1ccc(Cl)cc1
27	C[C@H](CO)N(c1cc(F)ccc1F)S(=O)(=O)c1ccc(Cl)cc1
70	CC(C)C(c1cc(F)ccc1F)S(=O)(=O)c1ccc(Cl)cc1 (centres undefined)
35	CC(CCO)C(c1cc(F)ccc1F)S(=O)(=O)c1ccc(Cl)cc1 (centres undefined)
253	COC(=O)C(C)C(c1cc(F)ccc1F)S(=O)(=O)c1ccc(Cl)cc1 (centres undefined)
> 10000	O=S(=O)(Nc1cc(F)ccc1F)c1ccc(Cl)cc1
304	CC(CO)C(c1cc(F)ccc1F)S(=O)(=O)c1ccc(Cl)cc1 (centres undefined)
4410	O=S(=O)(Cc1cc(F)ccc1F)c1ccc(Cl)cc1
2470	CC(c1cc(F)ccc1F)S(=O)(=O)c1ccc(Cl)cc1 (centres undefined)
249	O=S(=O)(c1ccc(Cl)cc1)C1(c2cccc(F)c2)CCCCC1
98	O=S(=O)(c1ccccc1)C1(c2cc(F)ccc2F)CCCCC1
1900	CN(c1cc(F)ccc1F)S(=O)(=O)c1ccc(Cl)cc1
104	COC(=O)C1CC(c2cc(F)ccc2F)(S(=O)(=O)c2ccc(Cl)cc2)CCC1=O (centres undefined)
22	O=C1CCC(c2cc(F)ccc2F)(S(=O)(=O)c2ccc(Cl)cc2)CC1
3	O=S(=O)(c1ccc(Cl)cc1)C1(c2cc(F)ccc2F)CCCCC1
12	O=S(=O)(c1ccc(Cl)cc1)C1(c2cc(F)ccc2F)CC2CCC(C2)C1 (stereo in doubt; 19)
94	O=S(=O)(c1ccc(Cl)cc1)C1(c2cc(F)ccc2F)CC2CCC(C2)C1 (stereo in doubt; 20)
